Reference: BindingDB's records for doi:10.1016/j.bmcl.2005.06.044 (The University of Tokyo, 2005)

Assay: Androgen antagonistic activity as inhibitory concentration against testosterone-induced SC-3 cell proliferation

SMILES	IC50
CCC(CC)(c1ccc(O)c(C)c1)c1ccc(NCC(=O)C(C)(C)C)c(C)c1	3.5 µM
CCC(CC)(c1ccc(NCC(O)CO)c(C)c1)c1ccc(OCC(O)C(C)(C)C)c(C)c1 (centres undefined) [3-(4-{1-Ethyl-1-[4-(2-hydroxy-3,3-dimethyl-butoxy)-3-methyl-phenyl]-propyl}-2-methyl-phenylamino)-propane-1,2-diol]	0.009 µM
CCC(CC)(c1ccc(NCCC(C)(C)O)c(C)c1)c1ccc(OCC(=O)C(C)(C)C)c(C)c1 [1-(4-{1-Ethyl-1-[4-(3-hydroxy-3-methyl-butylamino)-3-methyl-phenyl]-propyl}-2-methyl-phenoxy)-3,3-dimethyl-butan-2-one]	0.82 µM
CCC(CC)(c1ccc(NCC(=O)C(C)(C)C)c(C)c1)c1ccc(OCC(=O)C(C)(C)C)c(C)c1	1.2 µM
CCC(CC)(c1ccc(NCC(O)C(C)(C)C)c(C)c1)c1ccc(NCC(O)C(C)(C)C)c(C)c1 (centres undefined)	1 µM
CCC(CC)(c1ccc(NCC(=O)C(C)(C)C)c(C)c1)c1ccc(NCC(=O)C(C)(C)C)c(C)c1	1 µM
CCC(CC)(c1ccc(NCCC(C)(C)O)c(C)c1)c1ccc(NCCC(C)(C)O)c(C)c1 [4-(4-{1-Ethyl-1-[4-(3-hydroxy-3-methyl-butylamino)-3-methyl-phenyl]-propyl}-2-methyl-phenylamino)-2-methyl-butan-2-ol]	6.8 µM
CCC(CC)(c1ccc(OCC(=O)C(C)(C)C)c(C)c1)c1ccc(OCC(=O)C(C)(C)C)c(C)c1 [LG190155]	1.9 µM
CCC(CC)(c1ccc(OC[C@H](O)CO)c(C)c1)c1ccc(OC[C@H](O)C(C)(C)C)c(C)c1 [(R)-3-(4-(3-(4-((R)-2-hydroxy-3,3-dimethylbutoxy)-3-methylphenyl)pentan-3-yl)-2-methylphenoxy)propane-1,2-diol]	0.019 µM
